{"source": "ChEMBL document CHEMBL6153017", "about": "“Progress on the mechanism of natural products alleviating androgenetic alopecia” (2024)", "type_in_all_cases": "functional", "key": {"[1]": {"system": "Hair follicle", "assay": "Upregulation of SHH mRNA expression in human hair follicle assessed as fold change at 0.5 uM measured for 48 hrs by qRT-PCR analysis"}, "[2]": {"system": "Hair follicle", "assay": "Upregulation of PTCH mRNA expression in human hair follicle assessed as fold change at 0.5 uM measured for 48 hrs by qRT-PCR analysis"}, "[3]": {"system": "Hair follicle", "assay": "Upregulation of Smo mRNA expression in human hair follicle assessed as fold change at 0.5 uM measured for 48 hrs by qRT-PCR analysis"}, "[4]": {"system": "Hair follicle", "assay": "Upregulation of Gli mRNA expression in human hair follicle assessed as fold change at 0.5 uM measured for 48 hrs by qRT-PCR analysis"}, "[5]": {"system": "Hair follicle", "assay": "Upregulation of RBPJ mRNA expression in human hair follicle assessed as fold change at 5 ug/ml", "conditions": "dose 5 µg/ml"}}}
{"smiles": "O=C(O[C@@H]1Cc2c(O)cc(O)cc2O[C@@H]1c1cc(O)c(O)c(O)c1)c1cc(O)c(O)c(O)c1", "note": "[EPIGALOCATECHIN GALLATE]", "values": [{"measurement": "fold change (FC)", "setting": "[1]", "result": 4.48}, {"measurement": "fold change (FC)", "setting": "[2]", "result": 4.18}, {"measurement": "fold change (FC)", "setting": "[3]", "result": 4.71}, {"measurement": "fold change (FC)", "setting": "[4]", "result": 1.67}, {"measurement": "fold change (FC)", "setting": "[5]", "result": 7}]}
